US20250009726A1, “A PHARMACEUTICAL COMPOSITION OF FXR AGONIST AND ITS PREPARATION METHOD” (GANNEX PHARMA CO., LTD., priority 2021, published 2025)
“Also recorded” adds a separate entry of the source.

Key:
Type in all cases: physicochemical
[1] = Equilibrium solubility in media with different pH values (shaking 72 h, 37° C.); conditions: for solubility thermodynamic at 72 h: thermodynamic from solid
[2] = Compatibility test of API and excipients (strong light, high temperature, high humidity, 17 days)
[3] = Log D of the compound of formula (I)
Description: (§1) The solubility of drugs in the acidic environment of the gastrointestinal tract is a prerequisite for their transmembrane transport and absorption into the human body to exert efficacy. Therefore, the very low solubility of the compound limits its use for development as a drug candidate.

[4] = pKa of the compound of formula (I)
Description: as §1

[5] = Solubility in solvents (descriptive)
Description: as §1

[6] = Related substances of pilot tablet batches and API (area normalization); conditions: batch after manufacture
Description: The amount of impurities in each batch of samples were relatively stable and no significant change in the amount and type of impurities was observed after the tableting process.

[7] = normal temperatur, 92.5% RH-17 Days

## O=C([O-])c1ccc(Oc2ccc3cc(OCc4c(-c5c(Cl)cccc5Cl)noc4C4CC4)ccc3c2)nc1.[Na+] [COMPOUND I, 6-(6-(((5-cyclopropyl-3-(2,6-dichlorophenyl)isoxazol-4-yl)methoxy)naphthalene-2-yl)oxy) sodium nicotinate]
[1]; aqueous buffer, pH 6.0, 37° C.
  solubility thermodynamic at 72 h: 1.5 µg/mL
[1]; aqueous buffer, pH 6.8, 37° C.
  solubility thermodynamic at 72 h: 217 µg/mL
[1]; aqueous buffer, pH 7.0, 37° C.
  solubility thermodynamic at 72 h: 365 µg/mL
[1]; aqueous buffer, pH 8.0, 37° C.
  solubility thermodynamic at 72 h: 20400 µg/mL
[1]; low pH (pH 1.0-5.0)
  solubility (in words): almost insoluble
[1]; low pH (pH 1.0-5.0), listed as compound of formula (I)
  solubility (in words): practically insoluble
[1]; pH 6.8
  solubility (in words): very slightly soluble
[1]; pure water
  solubility (in words): sparingly soluble; also recorded: slightly soluble
[1]; water, pH 9.3, water, H2O (The final pH was around 9.3), 37° C.
  solubility thermodynamic at 72 h: 22300 µg/mL
[2]; 0 Day
  Related substances (%) COMPOUND I-B: 0.2869%
  Related substances (%) COMPOUND I-IM1: 0.2264%
  Related substances (%) Other maximum impurities: 0.1001%
  Related substances (%) Total impurities: 1.4056%
[2]; 25° C., 4500Lx-17 Days
  Related substances (%) COMPOUND I-B: 0.2896%
  Related substances (%) COMPOUND I-IM1: 0.2338%
  Related substances (%) Other maximum impurities: 0.1135%
  Related substances (%) Total impurities: 1.4901%
[2]; 60° C.-17 Days
  Related substances (%) COMPOUND I-B: 0.2964%
  Related substances (%) COMPOUND I-IM1: 0.2278%
  Related substances (%) Other maximum impurities: 0.1158%
  Related substances (%) Total impurities: 1.4686%
[2]; [7]
  Related substances (%) COMPOUND I-B: 0.2836%
  Related substances (%) COMPOUND I-IM1: 0.2318%
  Related substances (%) Other maximum impurities: 0.1124%
  Related substances (%) Total impurities: 1.4400%
[2]; strong light, high temperature and high humidity, compared with 0 day
  total impurity fluctuations of related substances: less than 0.5%
[3]
  logD: 5.76
[4]
  pKa: 3.76
[5]; 0.01 mol/L sodium hydroxide solutions
  solubility: practically insoluble
[5]; N, N-dimethylformamide
  solubility: soluble
[5]; acetonitrile
  solubility: practically insoluble
[5]; dimethyl sulfoxide
  solubility: soluble
[5]; ethyl acetate
  solubility: practically insoluble
[5]; methanol
  solubility: soluble
[5]; tetrahydrofuran
  solubility: practically insoluble
[5]; water
  solubility: practically insoluble
[6]; criterion NMT 0.15%
  COMPOUND I-C: Not detected
  COMPOUND I-IM1: 0.12%
  COMPOUND I-IM2: 0.12%
[6]; criterion NMT 0.2%
  Any individual unspecified impurity: 0.048%
[6]; criterion NMT 0.20%
  COMPOUND I-B: 0.015%
[6]; criterion NMT 2.0%
  Total impurities: 0.47%
